# Results as given in patent publication US7335671B2, “Arylcycloalkyl-substituted alkanoic acid derivatives, processes for their preparation and their use as pharmaceuticals” (Sanofi-Aventis Deutschland GmbH, priority 2003, dated 2008).
# Molecular target: T1, PPARalpha (Homo sapiens, UniProt Q07869)
# T1 construct: human PPARalpha receptor (amino acids S167-Y468); expressed in transfected cells; host or cells: HEK (human embryo kidney) cells, stably transfected; pcDNA3 vector, CMV promoter
# T1 sequence (Q07869 167-468): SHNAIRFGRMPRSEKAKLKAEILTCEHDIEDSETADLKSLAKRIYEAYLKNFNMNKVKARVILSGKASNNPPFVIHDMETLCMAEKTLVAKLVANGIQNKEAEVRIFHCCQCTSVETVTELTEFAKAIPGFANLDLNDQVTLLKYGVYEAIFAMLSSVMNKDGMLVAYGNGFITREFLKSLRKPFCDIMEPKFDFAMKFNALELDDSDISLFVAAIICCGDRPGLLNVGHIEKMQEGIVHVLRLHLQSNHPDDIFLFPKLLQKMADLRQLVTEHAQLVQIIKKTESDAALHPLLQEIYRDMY
# Experiment: Cellular PPARalpha assay (stably transfected HEK luciferase reporter cell line)
# Type: cell-based
# Conditions: GR-GAL4-humanPPARalpha-LBD
# Experimental: Determination of EC50 Values of PPAR agonists in the Cellular PPARalpha Assay
# The potency of substances which bind to human PPARA and activate in an agonistic manner is analyzed using a stably transfected HEK cell line (HEK =human embryo kidney) which is referred to here as PPARalpha reporter cell line. It contains two genetic elements, a luciferase reporter element (pδM-GAL4-Luc-Zeo) and a PPARalpha fusion protein (GR-GAL4-humanPPARα-LBD) which mediates expression of the luciferase reporter element depending on a PPARalpha ligand. The stably and constitutively expressed fusion protein GR-GAL4-humanPPARalpha-LBD binds in the cell nucleus of the PPARalpha reporter cell line via the GAL4 protein portion to the GAL4 DNA binding motifs 5′-upstream of the luciferase reporter element which is integrated in the genome of the cell line. There is only little expression of the luciferase reporter gene without addition of a PPARalpha ligand if fatty acid-depleted fetal calf serum (cs-FCS) is used in the assay. PPARα ligands bind and activate the PPARα fusion protein and thereby bring about expression of the luciferase reporter gene. The luciferase which is formed can be detected by means of chemiluminescence via an appropriate substrate.
# The PPARalpha reporter cell line was prepared in 2 stages. Firstly, the luciferase reporter element was constructed and stably transfected into HEK cells. For this purpose, five binding sites of the yeast transcription factor GAL4 (each 5′-CGGAGTACTGTCCTCCGAG-3′) (SEQ ID No. 1) were cloned in 5′-upstream of a 68 bp-long minimal MMTV promoter (Genbank Accession # V01 175). The minimal MMTV promoter section contains a CCAAT box and a TATA element in order to enable efficient transcription by RNA polymerase 11. The cloning and sequencing of the GAL4-MMTV construct took place in analogy to the description of Sambrook J. et. al. (Molecular cloning, Cold Spring Harbor Laboratory Press, 1989). Then the complete Photinus pyralis gene (Genbank Accession # M15077) was cloned in 3′-downstream of the GAL4-MMTV element. After sequencing, the luceriferase reporter element consisting of five GAL4 binding sites, MMTV promoter and luciferase gene was recloned into a plasmid which confers zeocin resistance in order to obtain the plasmid pδM-GAL4-Luc-Zeo. This vector was transfected into HEK cells in accordance with the statements in Ausubel, F. M. et al. (Current protocols in molecular biology, Vol. 1-3, John Wiley & Sons, Inc., 1995).
# In a second step, the PPARalpha fusion protein (GR-GAL4-humanPPARalpha-LBD was introduced into the stable cell clone described. For this purpose, initially the cDNA coding for the N-terminal 76 amino acids of the glucocorticoid receptor (Genbank Accession # P04150) was linked to the cDNA section coding for amino acids 1-147 of the yeast transcription factor GAL4 (Genbank Accession # P04386). The cDNA of the ligand-binding domain of the human PPARalpha receptor (amino acids S167-Y468; Genbank Accession # S74349) was cloned in at the 3′-end of this GR-GAL4 construct. The fusion construct prepared in this way (GR-GAL4-humanPPARalpha-LBD) was recloned into the plasmid pcDNA3 (from Invitrogen) in order to enable constitutive expression therein by the cytomegalovirus promoter. This plasmid was linearized with a restriction endonuclease and stably transfected into the previously described cell clone containing the luciferase reporter element. The finished PPARalpha reporter cell line which contains a luciferase reporter element and constitutively expresses the PPARalpha fusion protein (GR-GAL4-human PPARalpha-LBD) was isolated by selection with zeocin (0.5 mg/ml) and G418 (0.5 mg/ml).
# The activity of PPARalpha agonists is determined in a 3-day assay which is described below: […]
row,EC50,Compound
1,43 nM,"C#CCOC(CO[C@@H]1CCC[C@H](OCc2nc(-c3cccc(C)c3)oc2C)C1)C(=O)O (stereo partly drawn) [Example 22, 3-[(1R,3S)-3-(5-Methyl-2-m-tolyloxazol-4-ylmethoxy)cyclohexyloxy]-2-(2-propynyl-oxy)propionic acid]"
2,14 nM,"COC(CO[C@@H]1CCC[C@H](OCc2nc(-c3ccc(C)cc3C)oc2C)C1)C(=O)O (stereo partly drawn) [Example 36, 2-Methoxy-3-{(1R,3S)-3-[5-methyl-2-(2,4-dimethylphenyl)oxazol-4-ylmethoxy]-cyclohexyloxy}propionic acid]"
3,24 nM,"COCC(CO[C@@H]1CCC[C@H](OCc2nc(-c3cccc(C)c3)oc2C)C1)C(=O)O (stereo partly shown) [Example 8, (1R′,3S′)-2R/S-Methoxymethyl-3-[3-(5-methyl-2-m-tolyloxazol-4-ylmethoxy)cyclo-hexyloxy]propionic acid]"
4,26 nM,"CCOC(CO[C@@H]1CCC[C@H](OCc2nc(-c3ccc(OC(F)(F)F)cc3)oc2C)C1)C(=O)O (stereo partly drawn) [Example 60, 2-Ethoxy-3-{(1R,3S)-3-[5-methyl-2-(4-trifluoromethoxyphenyl)oxazol-4-ylmethoxy]-cyclohexyloxy}propionic acid]"
5,0.6 nM,"Cc1ccc(-c2nc(CO[C@H]3CCC[C@@H](OC[C@@H](OCc4ccc(C(F)(F)F)cc4)C(=O)O)C3)c(C)o2)cc1 [Example 81, (R)-3-[(1R,3S)-3-(5-Methyl-2-(4-methylphenyl)oxazol-4-ylmethoxy)cyclohexyloxy]-2-(4-trifluoromethylbenzyloxy)propionic acid]"
6,78 nM,"Cc1cccc(-c2nc(CO[C@H]3CCC[C@@H](OCC(Cc4cccc(C(F)(F)F)c4)C(=O)O)C3)c(C)o2)c1 (stereo partly drawn) [Example 91, 2-[(1R,3S)-3-(5-Methyl-2-m-tolyloxazol4-ylmethoxy)cyclohexyloxymethyl]-3-(3-trifluoromethylphenyl)propionic acid]"
7,6.2 nM,"Cc1cccc(-c2nc(CO[C@H]3CCC[C@@H](OCC(OC/C=C/c4ccccc4)C(=O)O)C3)c(C)o2)c1 (stereo partly drawn) [Example 25, 3-[(1R,3S)-3-(5-Methyl-2-m-tolyloxazol-4-ylmethoxy)cyclohexyloxy]-2-(3-phenyl-2-propenyloxy)propionic acid]"
8,84 nM,"COC(CO[C@@H]1CCC[C@H](OCc2nc(-c3ccc4ccccc4c3)oc2C)C1)C(=O)O (stereo partly drawn) [Example 35, 2-Methoxy-3-{(1R,3S)-3-[5-methyl-2-(3-naphthyl)oxazol-4-ylmethoxy]cyclohexyl-oxy}propionic acid]"
9,41 nM,"CCC(CCO[C@@H]1CCC[C@H](OCc2nc(-c3ccc(F)cc3)oc2C)C1)C(=O)O (stereo partly drawn) [Example 1, 2-Ethyl-4{(1R,3S)-3-[2-(4-fluorophenyl)-5-methyloxazol-4-ylmethoxy]-cyclohexyloxy}butanoic acid]"
10,69 nM,"Cc1cccc(-c2nc(CO[C@H]3CCC[C@@H](OCC4(C(=O)O)CC4)C3)c(C)o2)c1 [Example 5, (1R,3S)-1-[3-(5-methyl-2-m-tolyloxazol-4-ylmethoxy)cyclohexyloxymethyl]cyclo-propanecarboxylic acid]"
11,1.5 nM,"Cc1cccc(-c2nc(CO[C@H]3CCC[C@@H](OCC(OCc4ccc(C(C)(C)C)cc4)C(=O)O)C3)c(C)o2)c1 (stereo partly drawn) [Example 18, 3-[(1R,3S)-3-(5-Methyl-2-m-tolyloxazol-4-ylmethoxy)cyclohexyloxy]-2-(4-tert-butylbenzyloxy)propanoic acid]"
12,22 nM,"CCCOC(CO[C@@H]1CCC[C@H](OCc2nc(-c3cccc(C(F)(F)F)c3)oc2C)C1)C(=O)O (stereo partly drawn) [Example 52, 3-{(1R,3S)-3-[5-Methyl-2-(3-trifluoromethylphenyl)oxazol-4-ylmethoxy]cyclohexyl-oxy}-2-propoxypropionic acid]"
13,0.8 nM,"CCCOC(CO[C@@H]1CCC[C@H](OCc2nc(-c3ccc(C)cc3)oc2C)C1)C(=O)O (stereo partly drawn) [Example 47, 3-{(1R,3S)-3-[5-Methyl-2-(4-methylphenyl)oxazol-4-ylmethoxy]cyclohexyloxy}-2-propoxypropionic acid]"
